Laboratory results taken from patent US20030049600A1, “STEALTH VIRUS DETECTION IN THE CHRONIC FATIGUE SYNDROME” (priority 1991, published 2003).

Test system: fibroblasts
Test: Toxic effect on cultured fibroblasts, mimic of stealth virus culture toxicity
Type: cell-based
Details: 5 nM
Excerpt: A lack of regular refeeding of the cultures can result in a tendency for the CPE to abort and not to progress. This effect is not seen with CMV infected cultures. In unfed stealth virus cultures and even with regular refeeding, one can observe a toxic effect on many of the remaining cells. Culture cells appear to lose a degree of vitality and become duller in appearance compared to control cultures. The fibroblasts can assume somewhat of a pavement appearance, instead of the elongated shape.

## C=C1[C@@H](O)[C@@H]2O[C@]3(CC[C@H](/C=C/[C@@H](C)[C@@H]4CC(C)=C[C@@]5(O[C@H](C[C@@](C)(O)C(=O)O)CC[C@H]5O)O4)O3)CC[C@H]2O[C@@H]1[C@@H](O)C[C@H](C)[C@H]1O[C@@]2(CCCCO2)CC[C@H]1C [okadaic acid]
  toxic effect on culture cells (loss of vitality, duller, pavement appearance): Some of these changes can be mimicked
